Data: patent US9795688B2, “Cell-specific targeting using nanostructured delivery systems” (SmartDyeLivery GmbH, priority 2013, dated 2017)

Legend:
Type in all cases: cell-based
[1] = biological target: T1, NTCP (Homo sapiens, UniProt Q14973); experiment: Uptake of DY-635 into transporter-transfected HEK-293T cells; conditions: 10 μmol/L, 5 minutes
T1 construct: expressed in transfected cells; host or cells: HEK-293T
T1 sequence (Q14973 1-349): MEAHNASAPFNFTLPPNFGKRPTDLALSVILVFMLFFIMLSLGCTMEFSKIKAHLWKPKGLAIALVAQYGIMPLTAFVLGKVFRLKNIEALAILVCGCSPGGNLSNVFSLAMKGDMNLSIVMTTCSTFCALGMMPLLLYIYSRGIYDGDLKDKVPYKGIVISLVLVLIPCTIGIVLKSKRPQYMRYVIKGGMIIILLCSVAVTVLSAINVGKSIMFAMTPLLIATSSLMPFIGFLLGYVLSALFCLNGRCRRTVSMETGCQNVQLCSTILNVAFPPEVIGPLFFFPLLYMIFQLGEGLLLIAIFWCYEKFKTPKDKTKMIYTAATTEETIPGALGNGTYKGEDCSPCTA
Protocol: (§1) HEK-293T cells were transfected with human tissue-specific hepatocytic transporters. Then the uptake of the polymethine dye DY-635 as a targeting unit into these tissue-specific transporters was investigated for FIG. 10 A. To do so, the cells were sown onto 96 well plates, incubated for 24 hours under standard conditions, then incubated 5 minutes with DY-635 (final concentration in the well: 10 μmol/L) after changing the medium. Next the cells were lysed and the lysates were measured by fluorimetry. […] The uptake by OCT1 can be evaluated as negligible. In FIG. 10 B the question of whether DY-635 binds as an inhibitor to the basolateral hepatocytic transporters was investigated. For this purpose, the HEK-293T cells transfected with the tissue-specific transporters were sown and incubated as described above. After 24 hours the cells were incubated for 5 minutes with either a radioactively labeled transporter-specific substrate or with the radioactive-specific substrate with a specific inhibitor or with DY-635 (10 μmol/L final concentration) (the substrates and their concentrations are shown in Table 3 below). The cells were then washed and lysed in the well. To quantify the uptake, the radioactive radiation of the substrates was used. […] This illustrates the strong interaction of DY-635 with the tissue-specific hepatocytic transporters. […]

[2] = biological target: T2, OCT1 (Homo sapiens, UniProt O15245); experiment: as above; conditions: 10 μmol/L, 5 minutes
T2 construct: expressed in transfected cells; host or cells: HEK-293T
T2 sequence (O15245 1-554): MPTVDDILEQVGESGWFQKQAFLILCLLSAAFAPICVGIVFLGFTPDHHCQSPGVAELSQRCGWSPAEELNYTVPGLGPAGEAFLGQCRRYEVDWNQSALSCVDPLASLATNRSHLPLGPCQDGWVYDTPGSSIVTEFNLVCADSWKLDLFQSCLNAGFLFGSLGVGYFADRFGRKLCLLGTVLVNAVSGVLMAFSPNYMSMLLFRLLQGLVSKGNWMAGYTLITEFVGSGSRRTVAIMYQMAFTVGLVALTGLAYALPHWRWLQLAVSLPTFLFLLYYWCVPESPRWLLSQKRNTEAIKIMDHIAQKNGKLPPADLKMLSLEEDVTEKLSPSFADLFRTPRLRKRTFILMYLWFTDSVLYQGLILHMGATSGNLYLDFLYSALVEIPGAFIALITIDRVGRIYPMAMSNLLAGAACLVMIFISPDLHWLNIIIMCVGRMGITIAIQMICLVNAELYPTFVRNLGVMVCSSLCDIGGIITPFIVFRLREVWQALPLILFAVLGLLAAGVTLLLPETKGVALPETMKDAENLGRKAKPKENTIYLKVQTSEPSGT
Protocol: as §1

[3] = biological target: T3, OAT2 (Homo sapiens, UniProt Q9Y694); experiment: Inhibition of radioactively labeled substrate uptake in transfected HEK-293T cells; conditions: 10 μmol/L, 5 minutes; [3H]cGMP 10 nM
T3 construct: expressed in transfected cells; host or cells: HEK-293T
T3 sequence (Q9Y694 1-548): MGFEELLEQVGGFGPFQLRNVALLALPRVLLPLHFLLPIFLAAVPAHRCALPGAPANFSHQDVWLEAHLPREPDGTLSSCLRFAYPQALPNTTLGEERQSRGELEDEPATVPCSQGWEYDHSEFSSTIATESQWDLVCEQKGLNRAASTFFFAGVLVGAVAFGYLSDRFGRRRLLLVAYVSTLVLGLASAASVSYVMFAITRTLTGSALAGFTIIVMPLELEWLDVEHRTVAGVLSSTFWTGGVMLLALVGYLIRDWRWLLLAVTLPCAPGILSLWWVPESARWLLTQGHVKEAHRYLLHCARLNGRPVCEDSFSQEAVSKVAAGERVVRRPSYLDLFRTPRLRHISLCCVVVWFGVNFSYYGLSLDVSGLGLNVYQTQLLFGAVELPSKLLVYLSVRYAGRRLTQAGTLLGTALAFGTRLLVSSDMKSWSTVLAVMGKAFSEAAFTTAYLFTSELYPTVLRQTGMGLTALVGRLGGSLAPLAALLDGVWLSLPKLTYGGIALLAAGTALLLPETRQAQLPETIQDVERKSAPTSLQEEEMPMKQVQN
Protocol: (§2) HEK-293T cells were transfected with human tissue-specific hepatocytic transporters. Then the uptake of the polymethine dye DY-635 as a targeting unit into these tissue-specific transporters was investigated for FIG. 10 A. To do so, the cells were sown onto 96 well plates, incubated for 24 hours under standard conditions, then incubated 5 minutes with DY-635 (final concentration in the well: 10 μmol/L) after changing the medium. Next the cells were lysed and the lysates were measured by fluorimetry. […] The uptake by OCT1 can be evaluated as negligible. In FIG. 10 B the question of whether DY-635 binds as an inhibitor to the basolateral hepatocytic transporters was investigated. For this purpose, the HEK-293T cells transfected with the tissue-specific transporters were sown and incubated as described above. After 24 hours the cells were incubated for 5 minutes with either a radioactively labeled transporter-specific substrate or with the radioactive-specific substrate with a specific inhibitor or with DY-635 (10 μmol/L final concentration) (the substrates and their concentrations are shown in Table 3 below). The cells were then washed and lysed in the well. To quantify the uptake, the radioactive radiation of the substrates was used. […] This illustrates the strong interaction of DY-635 with the tissue-specific hepatocytic transporters. It can be concluded that by exposure of DY-635 to the surface of a nanostructured transporter system, immobilization on the cell surface of the hepatocyte occurs, resulting in subsequent endocytosis of the nanoparticle.

[4] = biological target: T4, OATP1B1 (Homo sapiens, UniProt Q9Y6L6); experiment: as above; conditions: 10 μmol/L, 5 minutes; [3H]Estradiol 30 nM
T4 construct: expressed in transfected cells; host or cells: HEK-293T
T4 sequence (Q9Y6L6 1-691): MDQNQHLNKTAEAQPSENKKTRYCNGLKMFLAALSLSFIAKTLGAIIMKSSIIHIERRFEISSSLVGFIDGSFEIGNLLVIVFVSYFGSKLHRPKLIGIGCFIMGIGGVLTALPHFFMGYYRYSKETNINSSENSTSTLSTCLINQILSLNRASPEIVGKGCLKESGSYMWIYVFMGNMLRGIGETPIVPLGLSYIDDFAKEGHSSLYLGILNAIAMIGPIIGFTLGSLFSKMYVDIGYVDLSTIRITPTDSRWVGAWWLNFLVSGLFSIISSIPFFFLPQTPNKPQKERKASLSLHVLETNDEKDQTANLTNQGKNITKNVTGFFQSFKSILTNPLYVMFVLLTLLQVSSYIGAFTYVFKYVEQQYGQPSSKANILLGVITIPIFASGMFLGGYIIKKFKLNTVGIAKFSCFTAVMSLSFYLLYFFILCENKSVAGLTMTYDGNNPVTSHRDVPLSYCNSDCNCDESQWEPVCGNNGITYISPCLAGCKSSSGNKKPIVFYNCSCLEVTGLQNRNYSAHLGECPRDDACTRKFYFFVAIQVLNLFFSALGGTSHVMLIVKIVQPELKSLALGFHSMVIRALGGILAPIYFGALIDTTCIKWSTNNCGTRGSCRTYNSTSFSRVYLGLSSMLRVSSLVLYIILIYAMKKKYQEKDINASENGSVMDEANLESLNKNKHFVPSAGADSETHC
Protocol: as §2

[5] = biological target: T5, OATP1B3 (Homo sapiens, UniProt Q9NPD5); experiment: as above; conditions: 10 μmol/L, 5 minutes; [3H]Sulfobromophthalein
T5 construct: expressed in transfected cells; host or cells: HEK-293T
T5 sequence (Q9NPD5 1-702): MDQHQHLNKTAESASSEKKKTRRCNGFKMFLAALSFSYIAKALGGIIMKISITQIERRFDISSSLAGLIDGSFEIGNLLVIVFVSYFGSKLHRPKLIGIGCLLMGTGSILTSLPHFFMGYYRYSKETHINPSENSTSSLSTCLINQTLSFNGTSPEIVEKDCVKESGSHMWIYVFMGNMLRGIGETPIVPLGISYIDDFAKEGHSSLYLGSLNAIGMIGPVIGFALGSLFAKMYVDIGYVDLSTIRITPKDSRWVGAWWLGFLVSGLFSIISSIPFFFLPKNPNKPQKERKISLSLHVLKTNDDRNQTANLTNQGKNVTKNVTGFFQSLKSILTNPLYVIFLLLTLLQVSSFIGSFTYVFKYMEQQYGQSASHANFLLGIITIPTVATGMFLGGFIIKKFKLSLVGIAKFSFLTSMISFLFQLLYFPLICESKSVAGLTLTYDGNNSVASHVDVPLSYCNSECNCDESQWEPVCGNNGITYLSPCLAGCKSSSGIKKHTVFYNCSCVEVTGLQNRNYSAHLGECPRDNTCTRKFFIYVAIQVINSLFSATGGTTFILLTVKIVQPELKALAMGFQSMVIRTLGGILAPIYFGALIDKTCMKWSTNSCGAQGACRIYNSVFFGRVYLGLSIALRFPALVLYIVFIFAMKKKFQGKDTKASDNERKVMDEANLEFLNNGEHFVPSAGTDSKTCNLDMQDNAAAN
Protocol: as §2

[6] = biological target: T2, OCT1; experiment: as above; conditions: 10 μmol/L, 5 minutes; [3H]1-Methyl-4-phenylpyridinium
Protocol: as §2

- uptake of DY-635 by NTCP [1]: substrate for NTCP
- uptake of DY-635 by OCT1 [2]: negligible
- inhibition of OAT2 [3]: inhibited
- inhibition of OATP1B1 [4]: strong indicator
- inhibition of OATP1B3 [5]: strong indicator
- inhibition of OCT1 [6]: inhibited
Structure (SMILES): CC(C)(C)C1=CC(=CC=CC2=[N+](CCCCCC(=O)O)c3ccc(S(=O)(=O)[O-])cc3C2(C)C)c2cc3c4c(c2O1)CCCN4CCC3 [DY-635]
